Reference: patent US20030199516A1, “Methods of treating infection by drug resistant bacteria” (Genesoft, Inc., priority 2001, published 2003)

How the values were obtained:
[1] = target: target sequence AAAAAGACAAAAA (351 bp fragment, Plasmid A); test: Quantitative DNase I footprint titration; assay type: binding; settings: 351 bp A, 22° C., pH 7.0, read-out: Dissociation Constant Kd
Source text: (§1) Compounds (1) through (20) according to this invention were screened for their ability to bind to specified DNA target sequences, using DNase I footprinting. Generally, the procedure described in Dervan, WO 98/50582 (1998), was followed.
(§2) Three double stranded circular plasmids A, B, and C were used to prepare double stranded DNA-binding probes containing the target sequences for the DNase I footprint titration experiments. Plasmids A, B, and C had nucleotide sequences given by SEQ ID NO. I, SEQ ID NO. II, and SEQ ID NO. III, respectively.
(§3) The 3′-P32 end-labeled EcoRI/PvuII fragments from each plasmid were prepared by digesting the plasmids with EcoRI and PvuII with simultaneous fill-in using Sequenase v. 2.0, [alpha-P32]-deoxyadenosine-5′-triphosphate, and [alpha-P32]-thymidine-5′-triphosphate, and isolating the cloned fragments by nondenaturing gel electrophoresis. A and G sequencing reactions were carried out as described (See Maxam and Gilbert, Methods Enzymol., 1980, 65, 499-560; Iverson and Dervan, Methods Enzymol., 1987, 15, 7823-7830; Sambrook et al., 1989, Molecular Cloning, 2nd ed., Cold Spring Harbor Laboratory Press: Cold Spring Harbor, N.Y.) Standard methods were used for all DNA manipulations (Sambrook et al., ibid.) The cut sites for EcoRI and PvuII are indicated by bars in the respective maps of Plasmids A, B, and C in FIGS. 5, 6, and 7.
(§4) The 351 base pair dsDNA restriction fragment (SEQ ID NO. IV) of Plasmid A contained the target sequences AAAAAGCAAAAA, AAAAAGACAAAAA, and AAAAAGTACAAAAA. The 310 base pair dsDNA restriction fragment (SEQ ID NO. V) of Plasmid B contained the target sequences AGTACT, AATACT, and ATTACT. The 352 base pair dsDNA restriction fragment (SEQ ID NO. VI) of Plasmid C contained the target sequences TGACAATTAAT, GACAATTAATCA, AATTAATCAT, ACAATTA, and ACAATTAAT. These fragments were used for quantitative DNase I footprinting experiments. Compounds used in the method of this invention bind to at least one of the target sites with a equal to or less than 100 nM, preferably equal to or less than 50 nM, and more preferably equal to or less than 20 nM. The target sequences were selected for the identity with, or similarity to, promoter sites for bacterial genes.
(§5) Quantitative DNase I footprint titration experiments were carried out as described previously (Dervan, WO 98/50582, 1998) with the following changes. All reactions were carried out in a total volume of 400 μL, with compound stock solution or water added to 15,000 cpm radiolabeled restriction fragment affording final solution conditions of 10 mM Tris HCl, 10 mM KCl, 10 mM MgCl2, 5 mM CaCl2, pH 7.0 and 0.01 nM, 0.1 nM, 1.0 nM, 10.0 nM compound or no compound for reference lanes. The compounds were allowed to equilbrate at 22° C. for 16 h. Footprinting reactions were initiated with addition of 10 μL of a DNase I stock solution (at the appropriate concentration to give ˜50% intact DNA) containing 1 mM DTT and allowed to proceed for 7 min at 22° C. The reactions were stopped, ethanol precipitated, resuspended in loading buffer, heat denatured, and placed on ice as described previously (Dervan WO 98/50582, 1998). The reaction products were separated on a precast 8% polyacrylamide denaturing sequencing Castaway gel with 32 preformed wells from Stratagene in 1×TBE at 2000 V. Gels were dried according to the manufacturer and exposed to a storage phosphor screen (Molecular Dynamics). Quantitation and data analysis were carried out as described in Dervan, WO 98/50582, 1998.

[2] = target: target sequence TGACAATTAAT (352 bp fragment, Plasmid C); test: Quantitative DNase I footprint titration; assay type: binding; settings: 352 bp C, 22° C., pH 7.0, read-out: Dissociation Constant Kd
Source text: as §1, §2, §3, §4, §5

[3] = target: target sequence AAAAAGCAAAAA (351 bp fragment, Plasmid A); test: Quantitative DNase I footprint titration; assay type: binding; settings: 351 bp A, 22° C., pH 7.0, read-out: Dissociation Constant Kd
Source text: as §1, §2, §3, §4, §5

S. aureus ATCC 27660 = test: NCCLS broth microdilution MIC; assay type: cell-based, Staphylococcus aureus; settings: Col. A = S. aureus ATCC 27660 (MRSA)
Source text: (§6) In vitro antibacterial activity data were collected for the following Gram-positive bacteria: Staphylococcus aureus (ATCC 27660, ATCC 33591 and ATCC 43300, all methicillin resistant strains (MRSA's)); Streptococcus pneumoniae (ATCC 51422, a penicillin resistant strain (PRSP)), Enterococcus faecium (ATCC 51559, and/or a vancomycin resistant strain (VRE)). Additionally, antifungal activity data were collected for Candida albicans (ATCC 38247). Minimal inhibition concentrations (MIC's) were determined using the National Committee for Clinical Laboratory Standards (NCCLS) broth microdilution assay in microtiter plates, as set forth in: (1) the guidelines of the National Committee for Clinical Laboratory Standards (NCCLS) Document M7-A4 (NCCLS, 1997); (2) the guidelines of the National Committee for Clinical Laboratory Standards (NCCLS) Document M11-A4 (NCCLS, 1997); and (3) the guidelines and reference method of the National Committee for Clinical Laboratory Standards (NCCLS) Document M27-T (NCCLS, 1995). For antifungal essays, the method recommended in Murray, PR., 1995 Manual of Clinical Microbiology (ASM Press, Washington, D.C.), was employed.

S. aureus ATCC 33591 = test: NCCLS broth microdilution MIC; assay type: cell-based, Staphylococcus aureus; settings: Col. B = S. aureus ATCC 33591 (MRSA)
Source text: as §6

[4] = test system: Enterococcus faecium ATCC 51559; test: NCCLS broth microdilution MIC; assay type: cell-based; settings: Col. D = E. faecium ATCC 51559 (VRE)
Source text: as §6

[5] = test system: Streptococcus pneumoniae ATCC 51422; test: NCCLS broth microdilution MIC; assay type: cell-based; settings: Col. E = S. pneumoniae ATCC 51422 (PRSP)
Source text: as §6

[6] = test system: Candida albicans ATCC 38247; test: Antifungal MIC; assay type: cell-based; settings: Col. F = C. albicans ATCC 38247
Source text: as §6

[7] = target: target sequence ATTACT (310 bp fragment, Plasmid B); test: Quantitative DNase I footprint titration; assay type: binding; settings: 310 bp B, 22° C., pH 7.0, read-out: Dissociation Constant Kd
Source text: as §1, §2, §3, §4, §5

[8] = target: target sequence AATTAATCAT (352 bp fragment, Plasmid C); test: Quantitative DNase I footprint titration; assay type: binding; settings: 352 bp C, 22° C., pH 7.0, read-out: Dissociation Constant Kd
Source text: as §1, §2, §3, §4, §5

Row | Structure (SMILES) | Kd [1] | Kd [2] | Kd [3] | Minimum Inhibitory Concentration (MIC) (S. aureus ATCC 27660) | Minimum Inhibitory Concentration (MIC) (S. aureus ATCC 33591) | Minimum Inhibitory Concentration (MIC) [4] | Minimum Inhibitory Concentration (MIC) [5] | Minimum Inhibitory Concentration (MIC) [6] | Kd [7] | Kd [8]
1 | CN(C)CCCNC(=O)CCNC(=O)c1cc(NC(=O)c2cc(NC(=O)CCNC(=O)c3cc(NC(=O)c4cc(NC(=O)c5cc(Br)c(Br)s5)cn4C)cn3C)cn2C)cn1C [Compound 1] | 0.01 nM | 2 nM | 0.01 nM | ++ (++ = MIC ≦ 1) | + (+ = MIC ≦ 2) | − (− = MIC > 2) | ++ (++ = MIC ≦ 1) | >32 µg/mL |  | 
2 | Cc1cc(NC(=O)c2cc(NC(=O)c3cc(NC(=O)c4nsc(NCCN5CCCCC5)c4Cl)cn3C)cn2C)sn1 [Compound 13] |  |  |  | ++ (++ = MIC ≦ 1) |  |  |  | >32 µg/mL | 5 nM | 10 nM
